This test concerns the target T1, STAT6 (endogenous, HiBiT-tagged) in HeLa LgBiT clone 4.14 cells (Homo sapiens, UniProt P42226).
T1 construct: These cells express endogenous STAT6; host or cells: HeLa LgBiT clone 4.14
T1 sequence (P42226 1-847): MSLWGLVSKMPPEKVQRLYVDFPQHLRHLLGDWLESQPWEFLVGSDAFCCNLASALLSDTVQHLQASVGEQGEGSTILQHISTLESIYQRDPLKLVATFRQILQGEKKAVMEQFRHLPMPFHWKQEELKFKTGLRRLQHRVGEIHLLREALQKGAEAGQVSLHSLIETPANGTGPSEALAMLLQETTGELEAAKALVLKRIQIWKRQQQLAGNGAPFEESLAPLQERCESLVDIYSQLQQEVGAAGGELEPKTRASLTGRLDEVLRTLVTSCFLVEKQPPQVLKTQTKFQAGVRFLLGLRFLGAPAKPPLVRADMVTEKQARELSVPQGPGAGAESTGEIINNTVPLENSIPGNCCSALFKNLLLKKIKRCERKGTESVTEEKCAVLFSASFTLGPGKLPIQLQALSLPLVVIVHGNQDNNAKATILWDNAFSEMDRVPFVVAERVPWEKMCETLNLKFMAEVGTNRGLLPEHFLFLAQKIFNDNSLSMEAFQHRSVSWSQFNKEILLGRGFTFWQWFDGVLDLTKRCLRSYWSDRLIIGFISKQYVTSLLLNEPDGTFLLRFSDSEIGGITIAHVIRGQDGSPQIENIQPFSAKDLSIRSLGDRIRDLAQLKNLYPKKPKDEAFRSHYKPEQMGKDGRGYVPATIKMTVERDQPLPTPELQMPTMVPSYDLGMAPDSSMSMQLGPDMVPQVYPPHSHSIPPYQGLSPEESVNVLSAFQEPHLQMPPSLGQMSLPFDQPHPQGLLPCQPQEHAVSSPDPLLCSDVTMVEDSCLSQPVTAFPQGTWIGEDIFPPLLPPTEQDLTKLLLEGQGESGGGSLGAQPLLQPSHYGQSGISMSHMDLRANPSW
Nature of the test: STAT6 Degrader Assay (HiBiT based, HeLa LgBiT clone 4.14 cells, luminescence, DC50). The conditions noted are these: geometric mean; for DC50: DC50 provided for test compounds with >80% Emax, read-out: STAT6 degradation DC50; for Emax: Emax provided for test compounds with <80% Emax (and 2c15), read-out: STAT6 degradation Emax. In kind it is cell-based. As for the experimental part:
This was a HiBit based assay. A HeLa cell line stably transfected with a small protein, LgBit (Large Bit) was obtained from Promega. These cells express endogenous STAT6. A small 11 amino acid gene sequence (HiBiT) was inserted in the STAT6 gene using CRISPR technology. Once STAT6 protein is expressed in the cells, the HiBiT sequence will bind the LgBit in the cells resulting in a functional NanoBiT protein, giving a luminescent tag to STAT6. Single cell clones were prepared and the clone 4.14 was selected for the assay based on that clone showing high luminescence, high STAT6 phosphorylation upon stimulation with IL-4, and inhibition of luminescence when cells were treated with STAT6 siRNA. HeLa LgBiT clone 4.14 cells were suspended in DMEM with 10% FCS, 1% Pen/Strep, Na-pyrovate and Hygromycin B, at a concentration of […]. 5000 cells were added pr well of a 384 well plate and 20 nL of compound was added by Echo® liquid handler. NN6394A (terfenadine, a toxic compound) was added to control wells at 50 µM concentration to establish the assay window. In these wells the cells are dead which equals 100% degradation of STAT6. After 4-24 h of incubation at 37° C. under 5% CO2/95% air, […] substrate (Nano-GLO®) was added to the wells and the plates were centrifuged and incubated for 0.5 h. The luminescence in the wells as a measure of non-degraded STAT6 was measured in a plate reader (BMG Pherastar FSX). The dose-response curves for Examples 2a2, 2t1, 2 h3, and 2r1 are shown below (where percent degradation is plotted vs. test compound concentration in M on a log-scale).
Background: HiBiT is a short tag that completes a luciferase, so light tracks the accessible tagged protein.

Where only a bound is given, the exact number is not on record here.

Usually DC50 stands for the concentration giving 50% degradation. As to `CNc1ccc(-c2ccnc3c2cc([C@H](C)N2CCC(c4ccc(C(=O)N5CCn6nc(CN7CCC(c8ccc(NC9CCC(=O)NC9=O)cc8F)CC7)cc6C5)cc4)CC2)n3C)cn1` (mixture of isomers) [Example 2c41, 3-((3-fluoro-4-(1-((5-(4-(1-((S)-1-(1-methyl-4-(6-(methylamino)pyridin-3-yl)-1H-pyrrolo[2,3-b]pyridin-2-yl)ethyl)piperidin-4-yl)benzoyl)-4,5,6,7-tetrahydropyrazolo[1,5-a]pyrazin-2-yl)methyl)piperidin-4-yl)phenyl)amino)piperidine-2,6-dione], the DC50 amounted to 3.3 nM.

The Emax is the size of the effect at its maximum, as opposed to the concentration needed. Consider `Cn1c(CN2CCC(c3ccc(C(=O)N4CCC(CN5CCN(c6ccc(N[C@H]7CCC(=O)NC7=O)cc6F)CC5)CC4)cc3)CC2)cc2c(-c3ccc4[nH]ncc4c3)ccnc21` (single isomer, unassigned) [Example 2c5], for which the Emax fell in the range of 70 to 80%.

As for `Cn1c(CN2CCC(c3ccc(C(=O)N4CCC(CN5CCN(c6ccc(NC7CCC(=O)NC7=O)cc6F)CC5)CC4)cc3)CC2)cc2c(-c3ccc4[nH]ncc4c3)ccnc21` (single isomer, unassigned) [Example 2c6], the half-maximal degradation concentration (DC50) is 22.5 nM.

`CC(c1cc2c(-c3ccc(N)nc3)ccnc2n1C)N1CCC(c2ccc(C(=O)N3CCC(CN4CCN(c5ccc(N[C@H]6CCC(=O)NC6=O)cc5F)CC4)CC3)cc2)CC1` (single isomer, unassigned) [Example 2c11]: the DC50 came out at 11.2 nM.

In the case of `CC(c1cc2c(-c3ccc(N)nc3)ccnc2n1C)N1CCC(c2ccc(C(=O)N3CCC(CN4CCN(c5ccc(N[C@@H]6CCC(=O)NC6=O)cc5F)CC4)CC3)cc2)CC1` (single isomer, unassigned) [Example 2c12], the DC50 is 17.7 nM.

`CNc1ccc(-c2ccnc3c2cc([C@H](C)N2CCC(c4ccc(C(=O)N5CCn6nc(CN7CCC(c8ccc(N[C@H]9CCC(=O)NC9=O)cc8F)CC7)cc6C5)cc4)CC2)n3C)cn1` (single isomer, unassigned) [Example 2c42]: the DC50 is 5.4 nM.

As for `CNc1ccc(-c2ccnc3c2cc([C@H](C)N2CCC(c4ccc(C(=O)N5CCn6nc(CN7CCC(c8ccc(N[C@@H]9CCC(=O)NC9=O)cc8F)CC7)cc6C5)cc4)CC2)n3C)cn1` (single isomer, unassigned) [Example 2c43], the half-maximal degradation concentration (DC50) was 1.6 nM.

In the case of `COC(C)c1nc2cc(-c3ccnc4c3cc([C@H](C)N3CCC(c5ccc(C(=O)N6CCC(CN7CCN(c8ccc(NC9CCC(=O)NC9=O)cc8F)CC7)CC6)cc5)CC3)n4C)ccc2[nH]1` (stereo in doubt) [Example 2c21, 3-((3-fluoro-4-(4-((1-(4-(1-((S)-1-(4-(2-((R)-1-methoxyethyl)-1H-benzo[d]imidazol-5-yl)-1-methyl-1H-pyrrolo[2,3-b]pyridin-2-yl)ethyl)piperidin-4-yl)benzoyl)piperidin-4-yl)methyl)piperazin-1-yl)phenyl)amino)piperidine-2,6-dione], the 50% degradation concentration (DC50) was found to be 4.4 nM.

Take `Cn1c(CN2CCC(c3ccc(C(=O)N4CCC(CN5CCN(c6ccc(NC7CCC(=O)NC7=O)cc6)CC5)CC4)cc3)CC2)cc2c(-c3ccc4[nH]ncc4c3)ccnc21` (centres unmarked) [Example 2b1, 3-((4-(4-((1-(4-(1-((4-(1H-indazol-5-yl)-1-methyl-1H-pyrrolo[2,3-b]pyridin-2-yl)methyl)piperidin-4-yl)benzoyl)piperidin-4-yl)methyl)piperazin-1-yl)phenyl)amino)piperidine-2,6-dione]: the DC50 is 19.2 nM.

`Cn1c(CN2CCC(c3ccc(C(=O)N4CCC(CN5CCN(c6ccc(NC7CCC(=O)NC7=O)c(F)c6)CC5)CC4)cc3)CC2)cc2c(-c3ccc4[nH]ncc4c3)ccnc21` (centres unmarked) [Example 2b2, 3-((4-(4-((1-(4-(1-((4-(1H-indazol-5-yl)-1-methyl-1H-pyrrolo[2,3-b]pyridin-2-yl)methyl)piperidin-4-yl)benzoyl)piperidin-4-yl)methyl)piperazin-1-yl)-2-fluorophenyl)amino)piperidine-2,6-dione]: the maximal effect (Emax) was in the range of 70 to 80%.

Regarding `COCc1nc2cc(-c3ccnc4c3cc(CN3CCC(c5ccc(C(=O)N6CCC(CN7CCN(c8ccc(NC9CCC(=O)NC9=O)c(F)c8)CC7)CC6)cc5)CC3)n4C)ccc2[nH]1` (centres unmarked) [Example 2b3, 3-((2-fluoro-4-(4-((1-(4-(1-((4-(2-(methoxymethyl)-1H-benzo[d]imidazol-5-yl)-1-methyl-1H-pyrrolo[2,3-b]pyridin-2-yl)methyl)piperidin-4-yl)benzoyl)piperidin-4-yl)methyl)piperazin-1-yl)phenyl)amino)piperidine-2,6-dione], the maximum response (Emax) lay within 70 to 80%.

For `Cn1c(CN2CCC(c3ccc(C(=O)N4CCC(CN5CCN(c6ccc(NC7CCC(=O)NC7=O)cc6F)CC5)CC4)cc3)CC2)cc2c(-c3ccc(N)nc3)ccnc21` (centres unmarked) [Example 2c2, 3-((4-(4-((1-(4-(1-((4-(6-aminopyridin-3-yl)-1-methyl-1H-pyrrolo[2,3-b]pyridin-2-yl)methyl)-piperidin-4-yl)benzoyl)piperidin-4-yl)methyl)piperazin-1-yl)-3-fluorophenyl)amino)piperidine-2,6-dione], the Emax was 50 to 60%.

As for `COCc1nc2cc(-c3ccnc4c3cc(CN3CCC(c5ccc(C(=O)N6CCC(CN7CCN(c8ccc(NC9CCC(=O)NC9=O)cc8F)CC7)CC6)cc5)CC3)n4C)ccc2[nH]1` (centres unmarked) [Example 2c4, 3-((3-fluoro-4-(4-((1-(4-(1-((4-(2-(methoxymethyl)-1H-benzo[d]imidazol-5-yl)-1-methyl-1H-pyrrolo[2,3-b]pyridin-2-yl)methyl)piperidin-4-yl)benzoyl)piperidin-4-yl)methyl)piperazin-1-yl)phenyl)-amino)piperidine-2,6-dione], the maximal effect (Emax) fell in the range of 70 to 80%.

For `Cc1nc(N)ccc1-c1ccnc2c1cc(CN1CCC(c3ccc(C(=O)N4CCC(CN5CCN(c6ccc(NC7CCC(=O)NC7=O)cc6F)CC5)CC4)cc3)CC1)n2C` (centres unmarked) [Example 2c7, 3-((4-(4-((1-(4-(1-((4-(6-amino-2-methylpyridin-3-yl)-1-methyl-1H-pyrrolo[2,3-b]pyridin-2-yl)methyl)piperidin-4-yl)benzoyl)piperidin-4-yl)methyl)piperazin-1-yl)-3-fluorophenyl)amino)piperidine-2,6-dione], the Emax is 30 to 40%.

As for `Cc1cc(C(=O)N2CCC(CN3CCN(c4ccc(NC5CCC(=O)NC5=O)cc4F)CC3)CC2)ccc1C1=CCN(Cc2cc3c(-c4ccc(N)nc4)ccnc3n2C)CC1` (centres unmarked) [Example 2c9, 3-((4-(4-((1-(4-(1-((4-(6-aminopyridin-3-yl)-1-methyl-1H-pyrrolo[2,3-b]pyridin-2-yl)methyl)-1,2,3,6-tetrahydropyridin-4-yl)-3-methylbenzoyl)piperidin-4-yl)methyl)piperazin-1-yl)-3-fluorophenyl)-amino)piperidine-2,6-dione], the Emax fell in the range of 50 to 60%.

Regarding `CC(c1cc2c(-c3ccc(N)nc3)ccnc2n1C)N1CCC(c2ccc(C(=O)N3CCC(CN4CCN(c5ccc(NC6CCC(=O)NC6=O)cc5F)CC4)CC3)cc2)CC1` (centres unmarked) [Example 2c10, 3-((4-(4-((1-(4-(1-(1-(4-(6-aminopyridin-3-yl)-1-methyl-1H-pyrrolo[2,3-b]pyridin-2-yl)-ethyl)-piperidin-4-yl)benzoyl)piperidin-4-yl)methyl)piperazin-1-yl)-3-fluorophenyl)amino)piperidine-2,6-dione], the DC50 was determined as 14.1 nM.

With `C[C@H](c1cc2c(-c3ccc(N)nc3)ccnc2n1C)N1CCC(c2ccc(C(=O)N3CCC(CN4CCN(c5ccc(NC6CCC(=O)NC6=O)cc5F)CC4)CC3)cc2)CC1` (stereo partly drawn) [Example 2c13, 3-((4-(4-((1-(4-(1-((R)-1-(4-(6-aminopyridin-3-yl)-1-methyl-1H-pyrrolo[2,3-b]pyridin-2-yl)ethyl)-piperidin-4-yl)benzoyl)piperidin-4-yl)methyl)piperazin-1-yl)-3-fluorophenyl)amino)piperidine-2,6-dione], the maximal response (Emax) was less than 20%.

These data come from US20260014147A1, “STAT6 DEGRADERS” (Gilead Sciences, Inc., priority 2024, published 2026).
